Assay results: PubChem BioAssay AID2060340 (Molecular Pharmacology Branch, DTP, NCI, 2025)

Test system: 349418-098-R-PDC spheroids, viability, % test/control
Assay: Anticancer human tumor 349418-098-R-PDC patient-derived lung adenocarcinoma cell line growth inhibition [IpAb]
Conditions: spheroids with HUVEC and MSC; for IC50: curve of first compound; for viability, T/C: stronger effect = lower value
Outline: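 Combinations with ipatasertib or abemaciclib were tested on tumour spheroids holding HUVEC (25%) and MSC (15%) alongside 60% malignant cells. Top concentration was at or near clinical Cmax (10 microM if undefined), descending in half-log steps.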

[1] = second compound 0.01 µM, first compound 0.00316 µM
[2] = second compound 0.01 µM, first compound 0.01 µM
[3] = second compound 0.01 µM, first compound 0.0316 µM
[4] = second compound 0.01 µM, first compound 0.1 µM
[5] = second compound 0.0316 µM, first compound 0.00316 µM
[6] = second compound 0.0316 µM, first compound 0.01 µM
[7] = second compound 0.0316 µM, first compound 0.0316 µM
[8] = second compound 0.0316 µM, first compound 0.1 µM
[9] = second compound 0.1 µM, first compound 0.00316 µM
[10] = second compound 0.1 µM, first compound 0.01 µM
[11] = second compound 0.1 µM, first compound 0.0316 µM
[12] = second compound 0.1 µM, first compound 0.1 µM
[13] = second compound 0.316 µM, first compound 0.00316 µM
[14] = second compound 0.316 µM, first compound 0.01 µM
[15] = second compound 0.316 µM, first compound 0.0316 µM
[16] = second compound 0.316 µM, first compound 0.1 µM
[17] = second compound 1 µM, first compound 0.00316 µM
[18] = second compound 1 µM, first compound 0.01 µM
[19] = second compound 1 µM, first compound 0.0316 µM
[20] = second compound 1 µM, first compound 0.1 µM
[21] = second compound 0.01 µM, first compound 0.316 µM
[22] = second compound 0.01 µM, first compound 1 µM
[23] = second compound 0.01 µM, first compound 3.16 µM
[24] = second compound 0.01 µM, first compound 10 µM
[25] = second compound 0.0316 µM, first compound 0.316 µM
[26] = second compound 0.0316 µM, first compound 1 µM
[27] = second compound 0.0316 µM, first compound 3.16 µM
[28] = second compound 0.0316 µM, first compound 10 µM
[29] = second compound 0.1 µM, first compound 0.316 µM
[30] = second compound 0.1 µM, first compound 1 µM
[31] = second compound 0.1 µM, first compound 3.16 µM
[32] = second compound 0.1 µM, first compound 10 µM
[33] = second compound 0.316 µM, first compound 0.316 µM
[34] = second compound 0.316 µM, first compound 1 µM
[35] = second compound 0.316 µM, first compound 3.16 µM
[36] = second compound 0.316 µM, first compound 10 µM
[37] = second compound 1 µM, first compound 0.316 µM
[38] = second compound 1 µM, first compound 1 µM
[39] = second compound 1 µM, first compound 3.16 µM
[40] = second compound 1 µM, first compound 10 µM
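Note: spheroids exposed to compounds for 7 days.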

SMILES	IC50 (second compound 0.01 µM) [nM]	IC50 (second compound 0.0316 µM) [nM]	IC50 (second compound 0.1 µM) [nM]	IC50 (second compound 0.316 µM) [nM]	IC50 (second compound 1 µM) [nM]	viability, T/C [3] [%]	viability, T/C [4] [%]	viability, T/C [7] [%]	viability, T/C [8] [%]	viability, T/C [11] [%]	viability, T/C [12] [%]	viability, T/C [15] [%]	viability, T/C [16] [%]	viability, T/C [19] [%]	viability, T/C [20] [%]	viability, T/C [21] [%]	viability, T/C [22] [%]	viability, T/C [25] [%]	viability, T/C [26] [%]	viability, T/C [29] [%]	further results
CC(C)n1nc(-c2ccc3oc(N)nc3c2)c2c(N)ncnc21 + CCN1CCN(Cc2ccc(Nc3ncc(F)c(-c4cc(F)c5nc(C)n(C(C)C)c5c4)n3)nc2)CC1	0.659	< 0.316	< 0.316	< 0.316	< 0.316	7.29	6.79	6.75	6.38	6.9	6.67	7.46	6.4	7.88	6.96	–	–	–	–	–	viability, T/C (second compound 0.01 µM, first compound 0.000316 µM): 78.5%; viability, T/C (second compound 0.01 µM, first compound 0.001 µM): 33.8%; viability, T/C [1]: 13.3%; viability, T/C [2]: 8.46%; viability, T/C (second compound 0.0316 µM, first compound 0.000316 µM): 38.4%; viability, T/C (second compound 0.0316 µM, first compound 0.001 µM): 22.3%; viability, T/C [5]: 10.4%; viability, T/C [6]: 6.7%; viability, T/C (second compound 0.1 µM, first compound 0.000316 µM): 26.9%; viability, T/C (second compound 0.1 µM, first compound 0.001 µM): 14.9%; viability, T/C [9]: 10.1%; viability, T/C [10]: 7.85%; viability, T/C (second compound 0.316 µM, first compound 0.000316 µM): 20.2%; viability, T/C (second compound 0.316 µM, first compound 0.001 µM): 13.6%; viability, T/C [13]: 9.36%; viability, T/C [14]: 7.22%; viability, T/C (second compound 1 µM, first compound 0.000316 µM): 14.4%; viability, T/C (second compound 1 µM, first compound 0.001 µM): 12.4%; viability, T/C [17]: 8.8%; viability, T/C [18]: 7.28%
CC1(C)CCC(CN2CCN(c3ccc(C(=O)NS(=O)(=O)c4ccc(NCC5CCOCC5)c([N+](=O)[O-])c4)c(Oc4cnc5[nH]ccc5c4)c3)CC2)=C(c2ccc(Cl)cc2)C1 + CCN1CCN(Cc2ccc(Nc3ncc(F)c(-c4cc(F)c5nc(C)n(C(C)C)c5c4)n3)nc2)CC1	1810	1640	< 31.6	< 31.6	< 31.6	102	75	60.8	56.1	29.8	32.8	20.6	19.6	16.7	18.6	68.5	67.8	52.5	55.4	29	viability, T/C [23]: 42.9%; viability, T/C [24]: 6.47%; viability, T/C [27]: 44.1%; viability, T/C [28]: 6.96%; viability, T/C [30]: 26.3%; viability, T/C [31]: 24.2%; viability, T/C [32]: 6.59%; viability, T/C [33]: 21.5%; viability, T/C [34]: 18.6%; viability, T/C [35]: 20.6%; viability, T/C [36]: 4.86%; viability, T/C [37]: 16%; viability, T/C [38]: 17.9%; viability, T/C [39]: 17%; viability, T/C [40]: 4.09%
CCCS(=O)(=O)Nc1ccc(F)c(C(=O)c2c[nH]c3ncc(-c4ccc(Cl)cc4)cc23)c1F + CCN1CCN(Cc2ccc(Nc3ncc(F)c(-c4cc(F)c5nc(C)n(C(C)C)c5c4)n3)nc2)CC1	91.3	< 31.6	< 31.6	< 31.6	< 31.6	59.7	50.3	34.7	23.7	18.8	17.6	14.3	13.6	14.1	11.8	32.9	37.3	27.6	28.3	17.3	viability, T/C [23]: 27.6%; viability, T/C [24]: 16.7%; viability, T/C [27]: 20.8%; viability, T/C [28]: 11.4%; viability, T/C [30]: 17.2%; viability, T/C [31]: 14.2%; viability, T/C [32]: 8.97%; viability, T/C [33]: 12.5%; viability, T/C [34]: 10.8%; viability, T/C [35]: 10.5%; viability, T/C [36]: 9.39%; viability, T/C [37]: 11.1%; viability, T/C [38]: 9.39%; viability, T/C [39]: 9.24%; viability, T/C [40]: 7.05%
COc1c(OCCCN2CCOCC2)ccc2c3n(c(=NC(=O)c4cnc(N)nc4)nc12)CCN3 + CCN1CCN(Cc2ccc(Nc3ncc(F)c(-c4cc(F)c5nc(C)n(C(C)C)c5c4)n3)nc2)CC1	5.6	< 3.16	< 3.16	< 3.16	< 3.16	9.39	6.45	8.91	6.1	8.06	6.16	7.73	6.28	8.15	6.25	6.48	6.24	5.57	5.71	6.04	viability, T/C [1]: 66.8%; viability, T/C [2]: 32.9%; viability, T/C [5]: 48.8%; viability, T/C [6]: 13.5%; viability, T/C [9]: 23.6%; viability, T/C [10]: 14%; viability, T/C [30]: 5.83%; viability, T/C [13]: 15.9%; viability, T/C [14]: 10.6%; viability, T/C [33]: 6.11%; viability, T/C [34]: 6.92%; viability, T/C [17]: 14%; viability, T/C [18]: 12.3%; viability, T/C [37]: 7.04%; viability, T/C [38]: 7.33%
Cc1nc(NC(=O)N2CCCC2C(N)=O)sc1-c1ccnc(C(C)(C)C(F)(F)F)c1 (stereo not given) + CCN1CCN(Cc2ccc(Nc3ncc(F)c(-c4cc(F)c5nc(C)n(C(C)C)c5c4)n3)nc2)CC1	47.5	< 31.6	< 31.6	< 31.6	< 31.6	59.8	32.7	40.5	27.1	20.3	13.9	15.9	12.6	12.8	11.4	17.9	14.1	12.1	7.43	9.49	viability, T/C [23]: 10.2%; viability, T/C [24]: 8.7%; viability, T/C [27]: 7.43%; viability, T/C [28]: 8.13%; viability, T/C [30]: 7.63%; viability, T/C [31]: 7.46%; viability, T/C [32]: 7.65%; viability, T/C [33]: 9.79%; viability, T/C [34]: 8.43%; viability, T/C [35]: 9%; viability, T/C [36]: 7.65%; viability, T/C [37]: 9.14%; viability, T/C [38]: 7.42%; viability, T/C [39]: 7.89%; viability, T/C [40]: 6.94%
